This note sets out measurements from ChEMBL document CHEMBL1201862, “PubChem BioAssay data set” (2004).

Assay [1] can be described thus: viability of uninfected HEp-2 cells – cell-based, HTS, cytotoxicity control for RSV inhibitor project, dose response (AID 2410). It counts as functional. Particulars: human respiratory syncytial virus.
Assay [2] deals with 72 kDa type IV collagenase (Homo sapiens, UniProt P08253). Briefly: Dose Response validation of uHTS RPN11 inhibitor hits using a MMP-2 Fluorescence assay. It counts as functional.
In assay [3] the target is 26S proteasome non-ATPase regulatory subunit 14 (Homo sapiens, UniProt O00487). Briefly: inhibition of proteasome subunit RPN11 – biochemical, fluorescence polarization, uHTS hits, confirmation (AID 602368). It counts as functional.
In assay [4] the target is Prothrombin (Bos taurus, UniProt P00735). Briefly: thrombin protease inhibitors – biochemical, fluorescence polarization, uHTS hits, dose response (AID 602369). In kind it is functional.
Assay [5] concerns the target T1, Fatty acid synthase (Homo sapiens, UniProt P49327). Briefly: inhibition of human FAS-TE enzyme activity – biochemical, endpoint fluorescence intensity, uHTS hits, dose response (AID 624327).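 Note: fluorescence from hydrolysis of an O-methyl fluorescein acyl ester substrate by the enzyme.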 It counts as functional.
The target of assay [6] is T1, Fatty acid synthase. Briefly: inhibition of human FAS-TE enzyme activity – biochemical, kinetic fluorescence intensity, dose response (AID 624326).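 Note: rate of fluorescence rise from hydrolysis of a fluorogenic O-methyl fluorescein ester substrate.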 It counts as functional.
Assay [7] in a line: intracellular Trypanosoma cruzi inhibitors in host cells – cell-based, plate reader, cherry-pick samples, set 3, dose response (AID 651818).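 Note: compounds incubated with infected cells for about four days.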 It counts as functional.
The nature of assay [8]: decrease of insulin promoter-GFP reporter – imaging, high-content screening, mouse beta cells (AID 1628). It counts as functional. Particulars: MIN6.
A short description of assay [9]: DRD fibroblast viability loss – cell-based, non-viral oncogenic, luminescence, dose response (AID 1934). It counts as functional. Particulars: Homo sapiens.
Assay [10] is described as follows: NIH-3T3 fibroblast cytotoxicity, dose response, cytotoxicity control, cell-based, fluorescence, Alamar Blue, secondary assay (AID 2327).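 Note: NIH-3T3 mouse fibroblasts cultured with fluconazole at 8 µg/mL.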 It counts as functional.
Assay [11] in a line: MIN6 cell viability loss – mouse insulinoma, cytotoxicity control, dose response (AID 2122).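 Note: confirmatory high-throughput counterscreen run to flag cytotoxic compounds.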 It counts as functional.
For assay [12], the system named is BJ. Briefly: cells. It counts as functional, cell-based. Particulars: Homo sapiens.
Assay [13] can be described thus: Luminescence Cell-Based Dose Response HTS to Identify Inhibitors of 5'UTR Stem-Loop Driven Prion Protein mRNA Translation in H4 Neuroglioblastoma Cells. [Related pubchem assays: 1827 (Project Summary), 1813 (Primary HTS)]. It counts as functional.
Assay [14] concerns BJ. Briefly: BJ-TERT fibroblast viability loss – cell-based, RAS-independent, luminescence, dose response (AID 1933). It counts as functional. Particulars: Homo sapiens.
In assay [15] the test system is BJ. Briefly: BJ-TERT-LT-ST fibroblast viability loss – cell-based, RAS-independent, luminescence, dose response (AID 1935).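 Note: BJ fibroblasts immortalized with TERT plus LT and ST oncogenes.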 In kind it is functional. Particulars: Homo sapiens.
A short description of assay [16]: Trypanosoma cruzi growth suppression in host cells – NIH3T3 host cells, beta-gal luminescence, confirmation (AID 2044).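 Note: intracellular parasites grown in NIH/3T3 mouse fibroblasts as host cells; luminescent beta-galactosidase reporter signal from transgenic T. cruzi replicating inside host cells; inhibitors lower the luminescence signal.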 It counts as functional, cell-based.
In assay [17] the test system is HEK293. Briefly: EBV LMP1 TES2 canonical NF-kB signalling blockers – cell-based, HEK293, luciferase, cherry-pick, dose response (AID 588343). Particulars: Homo sapiens. In kind it is functional.
Assay [18] relates to INS1. Briefly: INS-1E survival protection against cytokine death – cell-based, luminescence, retest, dose response (AID 449756).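 Note: cell death triggered by IL-1 beta plus TNF-alpha plus IFN-gamma mixture; protective hits raise ATP signal compared with cytokine alone wells.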 In kind it is functional. Particulars: Rattus norvegicus.
A short description of assay [19]: alpha-synuclein stem-loop luciferase translation blockers – H4 neuroglioma cells, luminescence, confirmation (AID 1988). In kind it is functional, cell-based.
Assay [20] is described as follows: NIH3T3 cell viability loss – ATP luminescence, mouse fibroblasts, counter-screen, dose response (AID 2010).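 Note: cells exposed to compound for about 90 hours before reading.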 In kind it is functional, cell-based.
The nature of assay [21]: fluconazole-exposed Candida albicans growth modulators – fluorescence, retest, confirmation (AID 2467). In kind it is functional, cell-based.
Assay [22] is described as follows: cells. It counts as functional, cell-based.
In assay [23] the target is Cytochrome P450 3A4 (Homo sapiens, UniProt P08684).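 Note: CYP3A4 tested as one member of a cytochrome P450 panel screen.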
Assay [24] is described as follows: cells. It counts as functional, cell-based. This is another data set of the same source.
A short description of assay [25]: luciferase reporter signal suppression in cells – H4 neuroglioma cells, luminescence, dose response (AID 1990). In kind it is functional, cell-based.
Assay [26] concerns the target T2, Corticotropin-releasing factor receptor 2/Corticotropin-releasing factor-binding protein (Homo sapiens, UniProt P24387+Q13324).
T2 sequence (Q13324 whole entry): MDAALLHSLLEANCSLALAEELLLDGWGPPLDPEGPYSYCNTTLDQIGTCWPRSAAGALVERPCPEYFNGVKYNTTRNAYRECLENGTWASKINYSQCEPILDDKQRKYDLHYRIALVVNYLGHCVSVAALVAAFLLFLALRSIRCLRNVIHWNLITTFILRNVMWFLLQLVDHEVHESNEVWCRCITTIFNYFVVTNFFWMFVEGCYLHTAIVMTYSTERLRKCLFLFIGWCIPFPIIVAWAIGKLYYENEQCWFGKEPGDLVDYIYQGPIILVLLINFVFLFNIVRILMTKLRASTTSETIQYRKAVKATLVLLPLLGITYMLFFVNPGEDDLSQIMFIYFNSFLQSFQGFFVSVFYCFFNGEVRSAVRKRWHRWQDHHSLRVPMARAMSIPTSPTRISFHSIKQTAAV
T2 sequence (P24387 whole entry): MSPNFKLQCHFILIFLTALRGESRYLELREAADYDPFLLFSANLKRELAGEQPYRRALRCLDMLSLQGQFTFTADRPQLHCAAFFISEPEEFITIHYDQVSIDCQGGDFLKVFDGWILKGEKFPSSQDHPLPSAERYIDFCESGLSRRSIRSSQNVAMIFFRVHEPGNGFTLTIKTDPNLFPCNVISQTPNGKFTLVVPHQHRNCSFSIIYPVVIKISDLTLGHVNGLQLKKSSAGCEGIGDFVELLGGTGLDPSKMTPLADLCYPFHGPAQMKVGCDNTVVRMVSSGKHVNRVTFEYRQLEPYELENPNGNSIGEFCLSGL
Briefly: activators of CRF receptor 2 with binding protein – uHTS hits, confirmation (AID 602473). It counts as functional. Particulars: read-out: EC50_Mean.

In assay [27] the test system is H4. Briefly: Luminescence Cell-Based Dose Response HTS to Identify Activators of 5'UTR Stem-Loop Driven Prion Protein mRNA Translation in H4 Neuroglioblastoma Cells. [Related pubchem assays: 1829 (Project Summary), 1814 (Primary HTS)]. In kind it is functional. Particulars: Homo sapiens.
The nature of assay [28]: Luminescence Cell-Based Dose Response HTS to Identify Activators of Luciferase Translation or Activity in H4 […] Cells. [Related pubchem assays: 1829 (Project Summary), 1814 (Primary HTS)]. In kind it is functional.
Assay [29] can be described thus: Luminescence Cell-Based Dose Confirmation HTS to Identify Activators of 5'UTR Stem-Loop Driven Alpha-Synuclein mRNA Translation in H4 Neuroglioblastoma Cells. [Related pubchem assays: 1829 (Project Summary), 1814 (Primary HTS)]. It counts as functional.
Assay [30] is described as follows: microbe, parasite or virus in culture. It counts as functional. Particulars: Mycobacterium tuberculosis.
In assay [31] the target is Protein Wnt-3a (Mus musculus, UniProt P27467). Briefly: antagonism of Wnt3a pathway luciferase reporter – Wnt-LIGHT cells, luminescence, selectivity assay for Gli-SUFU antagonist project, dose response (AID 651570).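 Note: Wnt-LIGHT reporter cells stimulated with conditioned medium from Wnt3a-producing cells.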 In kind it is functional. Particulars: read-out: IC50_Mean.
A short description of assay [32]: cells. It counts as functional.
In assay [33] the target is T3, Ubiquitin-conjugating enzyme E2 N (Homo sapiens, UniProt P61088).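 Note: Dose-response confirmation in a TR-FRET assay detecting UBC13-driven polyubiquitin chain formation, inhibition measured.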
T3 sequence (P61088 whole entry): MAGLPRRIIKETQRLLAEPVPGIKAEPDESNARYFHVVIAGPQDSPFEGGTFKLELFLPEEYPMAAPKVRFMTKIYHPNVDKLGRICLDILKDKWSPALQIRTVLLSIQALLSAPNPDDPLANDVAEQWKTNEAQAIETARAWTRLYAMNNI
It counts as functional.

Assay [34] can be described thus: THP-1 cell cytotoxicity, dose response, cytotoxicity control for non-replicating M. tuberculosis project (AID 489025). In kind it is functional.
In assay [35] the target is T4, Rac GTPase-activating protein 1 (Homo sapiens, UniProt Q9H0H5).
T4 sequence (Q9H0H5 whole entry): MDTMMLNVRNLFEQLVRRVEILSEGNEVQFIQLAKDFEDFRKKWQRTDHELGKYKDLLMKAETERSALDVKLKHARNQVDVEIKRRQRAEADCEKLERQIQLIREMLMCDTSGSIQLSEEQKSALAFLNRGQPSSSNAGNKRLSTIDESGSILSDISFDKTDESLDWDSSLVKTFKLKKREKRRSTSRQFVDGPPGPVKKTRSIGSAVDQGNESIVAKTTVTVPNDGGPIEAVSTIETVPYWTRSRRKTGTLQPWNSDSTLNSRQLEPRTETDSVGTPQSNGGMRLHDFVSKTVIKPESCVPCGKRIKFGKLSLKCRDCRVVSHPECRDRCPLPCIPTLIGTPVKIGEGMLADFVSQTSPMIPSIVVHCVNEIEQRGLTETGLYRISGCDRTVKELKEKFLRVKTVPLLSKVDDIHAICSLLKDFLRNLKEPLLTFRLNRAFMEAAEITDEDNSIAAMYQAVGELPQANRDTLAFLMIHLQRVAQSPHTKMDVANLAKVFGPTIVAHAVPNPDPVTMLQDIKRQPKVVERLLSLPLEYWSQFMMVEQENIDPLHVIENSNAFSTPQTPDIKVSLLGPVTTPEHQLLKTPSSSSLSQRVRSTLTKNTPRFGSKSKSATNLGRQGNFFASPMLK
Briefly: blockers of MgcRacGAP-driven Rac1 GTP hydrolysis – biochemical, ADP Hunter fluorescence, primary and confirmatory, confirmation (AID 624330). In kind it is functional.

Assay [36] in a line: viability loss in HeLa cells – cytotoxicity control for MgcRacGAP inhibitor project, dose response (AID 624300). It counts as functional.

Activity calls are given as the source filed them.

Sequence of 72 kDa type IV collagenase (P08253 whole entry): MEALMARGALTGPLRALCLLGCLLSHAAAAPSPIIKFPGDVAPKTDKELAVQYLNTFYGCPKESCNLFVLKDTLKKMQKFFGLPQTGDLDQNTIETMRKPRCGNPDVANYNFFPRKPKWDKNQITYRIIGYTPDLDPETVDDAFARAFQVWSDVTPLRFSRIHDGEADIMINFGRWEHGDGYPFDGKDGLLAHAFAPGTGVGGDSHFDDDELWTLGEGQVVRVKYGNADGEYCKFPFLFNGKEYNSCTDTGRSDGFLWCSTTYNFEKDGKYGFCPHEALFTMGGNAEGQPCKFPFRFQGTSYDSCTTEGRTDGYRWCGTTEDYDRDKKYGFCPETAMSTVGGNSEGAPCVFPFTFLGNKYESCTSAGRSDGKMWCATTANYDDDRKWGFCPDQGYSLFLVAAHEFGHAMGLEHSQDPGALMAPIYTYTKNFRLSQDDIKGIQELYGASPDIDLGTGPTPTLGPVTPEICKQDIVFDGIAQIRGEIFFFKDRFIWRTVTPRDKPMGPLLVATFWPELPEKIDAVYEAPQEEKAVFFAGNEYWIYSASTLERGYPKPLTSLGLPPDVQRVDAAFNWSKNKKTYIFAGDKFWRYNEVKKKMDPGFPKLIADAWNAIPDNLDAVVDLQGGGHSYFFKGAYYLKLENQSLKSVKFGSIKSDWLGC
T1 sequence (P49327 whole entry): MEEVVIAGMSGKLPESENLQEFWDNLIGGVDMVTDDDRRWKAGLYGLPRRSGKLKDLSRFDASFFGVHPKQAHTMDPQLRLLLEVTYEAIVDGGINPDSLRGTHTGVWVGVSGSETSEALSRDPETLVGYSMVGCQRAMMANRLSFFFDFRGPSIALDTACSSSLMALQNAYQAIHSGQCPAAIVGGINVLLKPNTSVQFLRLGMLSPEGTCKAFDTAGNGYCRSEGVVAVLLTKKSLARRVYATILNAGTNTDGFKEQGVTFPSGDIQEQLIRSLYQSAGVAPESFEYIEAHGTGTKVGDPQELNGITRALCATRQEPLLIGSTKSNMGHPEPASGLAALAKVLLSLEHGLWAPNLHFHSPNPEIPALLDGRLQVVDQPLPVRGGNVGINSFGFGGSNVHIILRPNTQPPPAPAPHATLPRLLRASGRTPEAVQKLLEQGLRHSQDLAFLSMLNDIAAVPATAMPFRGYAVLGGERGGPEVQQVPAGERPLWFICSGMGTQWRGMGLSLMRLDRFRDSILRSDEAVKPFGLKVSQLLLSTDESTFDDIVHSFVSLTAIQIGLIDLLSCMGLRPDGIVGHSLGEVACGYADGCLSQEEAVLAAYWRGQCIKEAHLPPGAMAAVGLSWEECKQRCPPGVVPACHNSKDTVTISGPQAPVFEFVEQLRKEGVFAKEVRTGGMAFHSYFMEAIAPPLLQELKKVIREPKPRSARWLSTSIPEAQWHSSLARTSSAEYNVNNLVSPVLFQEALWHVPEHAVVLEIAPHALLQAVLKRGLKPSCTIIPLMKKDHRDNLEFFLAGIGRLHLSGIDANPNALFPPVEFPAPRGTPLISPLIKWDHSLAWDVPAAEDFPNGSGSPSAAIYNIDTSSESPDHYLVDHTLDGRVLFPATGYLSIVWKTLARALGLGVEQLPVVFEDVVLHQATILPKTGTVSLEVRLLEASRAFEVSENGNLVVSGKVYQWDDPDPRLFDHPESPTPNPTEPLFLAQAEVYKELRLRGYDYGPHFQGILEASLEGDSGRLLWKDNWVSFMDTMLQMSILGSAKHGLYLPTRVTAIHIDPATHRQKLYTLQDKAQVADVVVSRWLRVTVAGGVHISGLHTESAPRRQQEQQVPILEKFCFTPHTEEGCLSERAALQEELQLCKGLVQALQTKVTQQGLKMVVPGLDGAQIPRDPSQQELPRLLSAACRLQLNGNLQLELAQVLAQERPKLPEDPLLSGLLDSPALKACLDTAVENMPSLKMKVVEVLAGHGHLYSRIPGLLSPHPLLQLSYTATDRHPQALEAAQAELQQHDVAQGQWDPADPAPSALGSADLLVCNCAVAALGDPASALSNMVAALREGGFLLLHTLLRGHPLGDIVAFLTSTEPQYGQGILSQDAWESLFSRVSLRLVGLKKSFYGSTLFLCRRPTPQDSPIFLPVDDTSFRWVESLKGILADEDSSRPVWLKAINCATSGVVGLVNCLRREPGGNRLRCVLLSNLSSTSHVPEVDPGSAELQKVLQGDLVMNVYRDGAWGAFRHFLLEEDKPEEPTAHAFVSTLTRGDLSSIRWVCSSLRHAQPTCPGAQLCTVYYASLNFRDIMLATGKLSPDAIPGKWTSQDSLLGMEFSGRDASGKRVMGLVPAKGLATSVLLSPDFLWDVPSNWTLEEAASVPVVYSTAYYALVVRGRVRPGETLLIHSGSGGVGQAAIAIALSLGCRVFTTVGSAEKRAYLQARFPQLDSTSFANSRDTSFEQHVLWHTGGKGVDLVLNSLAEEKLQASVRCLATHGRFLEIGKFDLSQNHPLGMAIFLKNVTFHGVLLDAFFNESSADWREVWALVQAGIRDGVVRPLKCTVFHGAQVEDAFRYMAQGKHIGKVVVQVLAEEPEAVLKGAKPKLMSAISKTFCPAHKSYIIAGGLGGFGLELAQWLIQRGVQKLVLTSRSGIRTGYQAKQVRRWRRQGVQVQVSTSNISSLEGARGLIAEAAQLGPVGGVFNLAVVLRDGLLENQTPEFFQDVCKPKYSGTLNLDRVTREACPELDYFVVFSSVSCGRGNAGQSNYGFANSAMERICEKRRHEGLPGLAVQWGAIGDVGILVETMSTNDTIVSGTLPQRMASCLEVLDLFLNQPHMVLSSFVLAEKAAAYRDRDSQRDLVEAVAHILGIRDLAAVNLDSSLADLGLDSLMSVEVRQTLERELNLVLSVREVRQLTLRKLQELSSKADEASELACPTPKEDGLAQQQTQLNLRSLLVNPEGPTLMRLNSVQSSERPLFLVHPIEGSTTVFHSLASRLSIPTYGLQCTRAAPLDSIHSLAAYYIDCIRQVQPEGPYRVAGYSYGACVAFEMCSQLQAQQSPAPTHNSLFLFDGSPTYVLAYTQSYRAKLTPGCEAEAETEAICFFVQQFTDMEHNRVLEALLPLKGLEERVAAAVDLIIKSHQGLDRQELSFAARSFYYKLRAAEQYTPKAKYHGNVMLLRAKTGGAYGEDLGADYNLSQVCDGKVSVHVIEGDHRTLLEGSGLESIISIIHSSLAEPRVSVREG
Sequence of 26S proteasome non-ATPase regulatory subunit 14 (O00487 whole entry): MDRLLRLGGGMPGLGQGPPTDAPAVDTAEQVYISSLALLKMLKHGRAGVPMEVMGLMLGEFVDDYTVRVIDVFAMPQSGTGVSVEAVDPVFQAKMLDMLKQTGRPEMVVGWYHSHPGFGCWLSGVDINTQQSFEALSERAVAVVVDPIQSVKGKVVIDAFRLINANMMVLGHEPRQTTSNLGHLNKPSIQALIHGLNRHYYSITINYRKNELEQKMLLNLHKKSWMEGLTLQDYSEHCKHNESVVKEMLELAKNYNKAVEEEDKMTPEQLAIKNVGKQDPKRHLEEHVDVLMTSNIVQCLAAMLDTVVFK
Sequence of Cytochrome P450 3A4 (P08684 whole entry): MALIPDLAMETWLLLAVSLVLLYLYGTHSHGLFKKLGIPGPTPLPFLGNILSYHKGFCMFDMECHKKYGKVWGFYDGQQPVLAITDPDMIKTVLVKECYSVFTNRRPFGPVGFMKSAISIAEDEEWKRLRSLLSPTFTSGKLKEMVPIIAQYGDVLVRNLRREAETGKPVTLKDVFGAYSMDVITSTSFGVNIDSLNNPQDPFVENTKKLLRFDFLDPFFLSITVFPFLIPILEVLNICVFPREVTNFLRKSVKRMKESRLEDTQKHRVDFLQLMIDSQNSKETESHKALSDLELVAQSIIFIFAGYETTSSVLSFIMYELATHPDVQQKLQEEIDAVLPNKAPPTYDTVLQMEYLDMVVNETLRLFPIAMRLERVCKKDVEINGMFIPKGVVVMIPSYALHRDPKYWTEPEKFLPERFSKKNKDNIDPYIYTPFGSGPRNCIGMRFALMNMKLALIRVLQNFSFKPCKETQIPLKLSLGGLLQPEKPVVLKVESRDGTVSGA
Sequence of Protein Wnt-3a (P27467 whole entry): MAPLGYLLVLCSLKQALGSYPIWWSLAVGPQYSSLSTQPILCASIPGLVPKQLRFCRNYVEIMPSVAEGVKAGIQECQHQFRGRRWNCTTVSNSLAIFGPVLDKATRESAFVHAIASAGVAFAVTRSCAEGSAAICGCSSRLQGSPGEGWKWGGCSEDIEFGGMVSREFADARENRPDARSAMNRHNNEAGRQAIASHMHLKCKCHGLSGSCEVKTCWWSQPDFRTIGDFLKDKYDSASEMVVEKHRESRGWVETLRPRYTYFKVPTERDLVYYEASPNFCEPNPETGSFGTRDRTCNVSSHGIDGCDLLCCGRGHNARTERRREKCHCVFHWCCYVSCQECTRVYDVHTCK

As to `Cc1ccc(C2CC(c3cccs3)=NN2S(=O)(=O)c2ccc(C)cc2)cc1` (stereo not given), the CC50 in assay [1] is > 50 µM (active). The IC50 in assay [2] is > 100 µM (inactive); in [3], 43.4 µM (active); in assay [4], 55.9 µM (active).

Consider `COc1ccc(-c2nn(CCC#N)cc2C(=O)Nc2ccc(C(C)=O)cc2)cc1[N+](=O)[O-]`, for which the IC50 in [5] was 1.41 µM (active); in assay [6], 4.1 µM (active).

As to `C[C@@H]1CN([C@H](C)CO)C(=O)c2cc(NC(=O)Nc3ccc(C(F)(F)F)cc3)ccc2O[C@H]1CN(C)S(=O)(=O)c1ccccc1`, the AC50 in assay [7] was 7.36 µM (active).

As for `COc1ccc(O)c(/C=N/NC(=O)c2ccc(OCc3cccc(Br)c3)cc2)c1`, the IC50 in assay [2] is > 100 µM (inactive); in assay [8], 3.56 µM (active); in [11], 2.84 µM (active); in [3], 37.9 µM (active); in [4], 68.3 µM (active). The EC50 in assay [9] is 16.3 µM (active); in assay [10] it was 17.5 µM (inconclusive); in assay [12], 110 µM (active); in assay [13], 6.79 µM (active); in assay [14], 9.05 µM (active); in assay [15] it was 20.1 µM (active). For the same compound, the EC50 is 770 nM (active) in assay [16]; 2.97 µM (active) in assay [19]; 7.23 µM (active) in assay [20]; > 38 µM (not active) in [21]; > 350 µM (not active) in assay [22]; > 350 µM (not active) in assay [24]. The EC50 in assay [25] is 239 nM (active). Moreover, the AC50 in assay [17] is 3.86 µM (active); in assay [18], 2.61 µM (active); in [23] it was 7.08 µM (inconclusive).

As for `C[C@@H]1CN([C@@H](C)CO)C(=O)c2cc(NS(=O)(=O)c3ccc(Cl)cc3)ccc2O[C@@H]1CN(C)Cc1ccc(-c2ccccc2)cc1`, the AC50 in assay [7] was 3.31 µM (active).

With `C[C@H]1CN([C@@H](C)CO)C(=O)c2cc(NC(=O)Cc3cn(C)c4ccccc34)ccc2O[C@H]1CN(C)Cc1ccc(-c2ccccc2)cc1`, in assay [7], the AC50 is 3.27 µM (active).

Regarding `O=C(CSc1ccc([N+](=O)[O-])cn1)Nc1ccc2c(c1)OCCO2`, the IC50 in [5] was 1.51 µM (active); in assay [6] it was 4.17 µM (active).

As to `CCOc1cc(/C=C2\C(=N)N3N=C(CC(=O)N4CCCCC4)SC3=NC2=O)ccc1O`, the IC50 in assay [2] was > 100 µM (inactive); in [3], 37.6 µM (active); in assay [4] it was 33.4 µM (active). Besides, the EC50 in assay [26] was 6.32 µM (active).

For the compound `C(=N\NC1=Nc2cccc3cccc1c23)/c1cccnc1`, the EC50 in [27] was > 120 µM (not active); in assay [28] it was 2.39 µM (active); in assay [29] it was 128 nM (active). Further, the IC50 in [2] was > 100 µM (inactive); in assay [3], 11.9 µM (active); in assay [4] it was 14 µM (active). Moreover, in assay [30], the CC50 was > 40 µM (active).

For `CCC(C)[C@H]1CN=C(N)N1CCc1cccc2ccccc12` (stereo not given in full), the IC50 in [31] was 6.06 µM (active); in [32], 22.5 µM (active); in assay [33], > 20 µM (inactive). Further, the CC50 in [34] was 15.8 µM (active).

As to `Nc1c(-c2cccc(Cl)c2)cnn1-c1cccc([N+](=O)[O-])c1`, the IC50 in [5] is 11 µM (active); in [6], 12 µM (active).

Take `C[C@@H]1CCCCO[C@@H](CN(C)Cc2ccc(Cl)c(Cl)c2)[C@@H](C)CN([C@H](C)CO)C(=O)c2cc(NC(=O)C3CCCCC3)ccc2O1`: the AC50 in assay [7] is 2.9 µM (active).

As to `Cc1c(C(=O)N/N=C/c2ccc(O)c(Br)c2)sc(N)c1C#N`, the IC50 in assay [2] was > 100 µM (inactive); in [35], 97.3 µM (active); in assay [3], 49.8 µM (active); in assay [4], 48.9 µM (active). The CC50 in assay [36] was 78.2 µM (active).
